In PMC6193035, “Novel small molecules affecting cell membrane as potential therapeutics for avian pathogenic Escherichia coli” (Scientific Reports, 2018):
≈ marks a conversion by molar mass, not a printed value.

Columns and labels:
APEC O78 [1] = test: Primary screening, growth inhibition of APEC O78; assay type: cell-based, Escherichia coli; details: 100 µM SM; no APEC recovered on LB agar subculture
Protocol: To identify the APEC growth inhibitors, SM library was screened against APEC O78 which is one of the most frequently isolated APEC serotypes from avian colibacillosis cases. One microlitre SMs (final concentration of 100 µM) were added using a slotted pin tool (V and P Scientific, San Diego, CA, USA) to the wells of the 96-well plate containing 100 µL of overnight grown 0.05 OD600 (7 × 10^7 CFU/mL) adjusted APEC culture. Controls (four replicates/plate) containing 1 µL of 100% DMSO (final concentration of 1%), 1 µL chloramphenicol (CHL, #C0378 Sigma-Aldrich) (20 µg/mL), 1 µL kanamycin (KAN, #60615 Sigma-Aldrich) (50 µg/mL), and 100 µL of M63 media were included. To determine the effect of DMSO on APEC growth, antimicrobial activity of DMSO was determined at different concentrations (1% to 32%) in a separate experiment. Plate was then incubated at 37 °C for 12 h in Sunrise - Absorbance microplate reader (Tecan Group Ltd. San Jose, CA) with kinetic OD600 measurement every 30 mins. The quality of screening was assessed by calculating the Z′-score as described previously. The growth inhibition of APEC was calculated by using the formula as previously described[13],[14]. The SMs inhibiting at least 80% of the APEC growth were selected as primary hits. […]

APEC O1 = test: MIC and MBC determination in M63 media; assay type: cell-based; details: Escherichia coli
APEC O15 = test: MIC and MBC determination in M63 media; assay type: cell-based; details: Escherichia coli
APEC O18 = test: MIC and MBC determination in M63 media; assay type: cell-based; details: Escherichia coli
APEC O35 = test: MIC and MBC determination in M63 media; assay type: cell-based; details: Escherichia coli
APEC O1-63 = test: MIC and MBC determination in M63 media; assay type: cell-based; details: Escherichia coli; APEC O1-63, M63 media
[2] = test system: STEC O157 and O26 strains; test: Activity against STEC strains at 100 µM in M63 media; assay type: cell-based, Escherichia coli
[3] = test system: biofilm embedded APEC O78; test: MBEC High-throughput (HTP) assay; assay type: cell-based, Escherichia coli; details: for MBEC as multiple of MIC (superscript): 18 h challenge in M63 media; for MBEC as multiple of MIC: tested 0.5X to 8X MIC
Protocol: The effect of cidal SMs against biofilm embedded APEC was determined using MBEC High-throughput (HTP) assay (Innovotech Inc., AB, Canada)[22]. Briefly, 150 μL of 0.05 OD600 adjusted APEC O78 culture was aliquoted into each well of the MBEC device containing polystyrene pegs and incubated at 37 °C for 36 h in LB media under stationary condition. […] The plate was incubated in the dark for 18 h at 37 °C with rotation at 110 rpm. The DMSO (1%) and […] media were used as positive and negative controls, respectively. Following incubation, MIC of SMs in challenged plate was recorded. The SMs exposed pegs were then transferred to a new 96-well plate containing PBS and sonicated for 30 mins (Aquasonic ultrasonic cleaner, VWR) to disrupt the biofilm. The sonicated suspensions were ten-fold serially diluted and plated on LB agar plate. Biofilm embedded APEC bacteria were enumerated and minimum biofilm eradication concentration (MBEC) of SMs were determined as described previously. Two independent experiments were conducted.

[4] = test system: intracellular APEC O78, O2, and O1 in infected Caco-2, HD11, and THP1 cells; test: Intracellular survival assay, statements over all serotypes and cells; assay type: cell-based, Escherichia coli; details: for minimal effective concentration: Escherichia coli, 6 h, O78, O2 and O1, Caco-2, HD11, THP-1, read-out: concentration clearing intracellular APEC; for ranking in clearing intracellular APEC: all tested serotypes and cells
Protocol: Intracellular survival assay was conducted as described previously[28],[29] to determine the effect of cidal SMs on APEC survival in phagocytic (HD11, THP-1) and non-phagocytic (Caco-2) cells. Briefly, mid-logarithmic phase grown APEC O78, O1, and O2 were washed and adjusted to 1 × 10^7 CFU/mL in cell culture incomplete media (no FBS and antibiotics). One-hundred microlitres adjusted APEC suspension was added at multiplicity of infection (MOI) 10 to wells of 96-well cell culture plate containing cultured macrophage (HD11, THP-1) and epithelial cells (Caco-2) and incubated for 1 h and 3 h, respectively. […] The cells were then lysed with 100 µL of 0.1% Triton X-100 for 5 mins, serially diluted, and plated on LB agar plate to enumerate viable bacteria. The intracellular bacteria in SMs treated wells were compared with DMSO (1%) treated wells. Two independent experiments in duplicate wells for each concentration of SMs were conducted.

APEC O78 [5] = test: Scanning electron microscopy; assay type: cell-based, Escherichia coli; details: 2X MBC
Protocol: The SMs treated APEC O78 cultures prepared above were also processed for scanning electron microscopy (SEM) as described previously. […] Briefly, one volume of bacterial culture was mixed with one volume of fixative (3% glutaraldehyde, 1% paraformaldehyde in 0.1 M potassium phosphate buffer, pH 7.2), and incubated at 4 °C overnight. The fixed bacterial cells were then centrifuged for 5 mins at 1,200 × g, washed twice with PBS, and resuspended in 1% osmium tetroxide for 1 h at room temperature in the dark, followed by serial dehydration of the sample in ethanol and platinum splatter-coating. Visualization and imaging of the sample was performed using a Hitachi S-4700 scanning electron microscope.

[6] = test system: E. coli Nissle 1917 and E. coli G58-1; test: Effect against beneficial microbes; assay type: cell-based, Escherichia coli; details: 100 µM
Protocol: SMs were screened against different beneficial microbes to determine their specificity as described previously. SMs were added at 100 µM to 100 µL of 0.05 OD600 adjusted bacterial cultures in specific growth media in 96-well plate, and plate was incubated under indicated conditions. The specific growth media and conditions required for beneficial microbes limited the use of minimal media. Following incubation, endpoint OD600 was measured and cultures from the wells with non-elevated OD600 were plated on selective agar plates to determine the bactericidal effect.

E. coli BW25113 = test system: E. coli BW25113; set-up: method as in https://pubchem.ncbi.nlm.nih.gov/bioassay/710; details: 100 µM; ref https://pubchem.ncbi.nlm.nih.gov/bioassay/710; cited from earlier work

Compound	bactericidal effect in primary screening (APEC O78 [1])	MBC (APEC O1)	MIC (APEC O1)	MBC (APEC O15)	MIC (APEC O15)	MBC (APEC O18)	MIC (APEC O18)	MBC (APEC O35)	MIC (APEC O35)	MBC (APEC O1-63)	MIC (APEC O1-63)	bactericidal activity against STEC strains [2]	MBEC as multiple of MIC (superscript) [3]	MBEC as multiple of MIC [3]	minimal effective concentration [4]	cell morphology in SEM (APEC O78 [5])	ranking in clearing intracellular APEC [4]	effect on E. coli Nissle 1917 and E. coli G58-1 [6]	growth inhibition of E. coli BW25113 (E. coli BW25113)	concentration that significantly (P < 0.01) reduced biofilm embedded APEC ([3]; no eradication)
CC1CCCN(CCC(=O)c2ccc(Br)cc2)C1 (stereo not shown) [SM1]	bactericidal	250 µM (≈ 77.6 µg/mL)	200 µM (≈ 62 µg/mL)	250 µM (≈ 77.6 µg/mL)	200 µM (≈ 62 µg/mL)	200 µM (≈ 62 µg/mL)	200 µM (≈ 62 µg/mL)	200 µM (≈ 62 µg/mL)	200 µM (≈ 62 µg/mL)	250 µM (≈ 77.6 µg/mL)	200 µM (≈ 62 µg/mL)	not cidal	d (4X MIC)	4 X MIC	≥ 100 µM					
COc1cc(CNCCc2ccc3ccccc3c2)ccc1OCC(O)CN1CCCC1 (stereo not shown) [SM2]		250 µM (≈ 109 µg/mL)	200 µM (≈ 86.9 µg/mL)	100 µM (≈ 43.5 µg/mL)	100 µM (≈ 43.5 µg/mL)	200 µM (≈ 86.9 µg/mL)	100 µM (≈ 43.5 µg/mL)	200 µM (≈ 86.9 µg/mL)	100 µM (≈ 43.5 µg/mL)	250 µM (≈ 109 µg/mL)	200 µM (≈ 86.9 µg/mL)	not cidal	b (1X MIC)		≥ 100 µM					
COc1cc(CNCCc2ccc(C)cc2)ccc1OCC(O)CN1CCCC1 (stereo not shown) [SM3]		200 µM (≈ 79.7 µg/mL)	100 µM (≈ 39.9 µg/mL)	100 µM (≈ 39.9 µg/mL)	100 µM (≈ 39.9 µg/mL)	100 µM (≈ 39.9 µg/mL)	100 µM (≈ 39.9 µg/mL)	200 µM (≈ 79.7 µg/mL)	100 µM (≈ 39.9 µg/mL)	200 µM (≈ 79.7 µg/mL)	200 µM (≈ 79.7 µg/mL)		b (1X MIC)		≥ 100 µM	blebbing and pore at single cell pole, respectively				
CC1CCC(C(C)C)C(OC(=O)Cn2c[n+](CC(=O)OC3CC(C)CCC3C(C)C)c3ccccc32)C1 (stereo not shown) [SM4]		50 µM	25 µM	25 µM	25 µM	50 µM	25 µM	25 µM	25 µM	50 µM	25 µM		a (0.5X MIC)		≤ 100 µM	severe wrinkling and multiple blebbing throughout the cells (membrane disruptors)	most effective SMs in clearing intracellular APEC serotypes in all tested cells			
CCN1/C(=C/c2ccc3ccccc3[n+]2CC)C=Cc2ccccc21 [SM9]		50 µM	25 µM	100 µM	25 µM	100 µM	25 µM	50 µM	25 µM	100 µM	50 µM		b (1X MIC)		≤ 100 µM		most effective SMs in clearing intracellular APEC serotypes in all tested cells	did not have effect	57%	
CC(=O)OC(C(Br)C(=O)c1ccc([N+](=O)[O-])cc1)C(Cl)(Cl)Cl (stereo not shown) [SM10]		25 µM (≈ 10.8 µg/mL)	25 µM (≈ 10.8 µg/mL)	100 µM (≈ 43.3 µg/mL)	50 µM (≈ 21.7 µg/mL)	100 µM (≈ 43.3 µg/mL)	25 µM (≈ 10.8 µg/mL)	50 µM (≈ 21.7 µg/mL)	25 µM (≈ 10.8 µg/mL)	100 µM (≈ 43.3 µg/mL)	50 µM (≈ 21.7 µg/mL)			> 8 X MIC	≤ 100 µM	shortened cells (~0.5 µM) and blebbing at both cell poles	most effective SMs in clearing intracellular APEC serotypes in all tested cells	did not have effect		1 X MIC
COc1ccc(CCN(Cc2cc3c(cc2Cl)OCO3)CC2CCN(C)CC2)cc1 [SM11]		100 µM (≈ 43.1 µg/mL)	100 µM (≈ 43.1 µg/mL)	100 µM (≈ 43.1 µg/mL)	100 µM (≈ 43.1 µg/mL)	200 µM (≈ 86.2 µg/mL)	200 µM (≈ 86.2 µg/mL)	200 µM (≈ 86.2 µg/mL)	100 µM (≈ 43.1 µg/mL)	200 µM (≈ 86.2 µg/mL)	100 µM (≈ 43.1 µg/mL)	not cidal	d (4X MIC)	4 X MIC	≥ 100 µM					
